35 compounds from ChEMBL document CHEMBL1128601, “Development of a novel series of trialkoxyaryl derivatives as specific and competitive antagonists of platelet activating factor” (J Med Chem, 1995) can be followed below.

The test system of experiment [1] is Platelet-activating factor receptor (Oryctolagus cuniculus). Briefly: Competitive inhibition of PAF-induced platelet aggregation was measured as IC50 ratio is (1000 x the IC50 of the test compound divided by the IC50 of a standard).
The species entered for experiment [2] is Oryctolagus cuniculus. Briefly: Activity against adenosine diphosphate (ADP) induced platelet aggregation.
Experiment [3] is filed under the species Oryctolagus cuniculus. Kind of experiment: Activity against U-46,619 induced platelet aggregation; no effect at 20 uM. Type of experiment: functional.
Experiment [4] is filed under the species Oryctolagus cuniculus. Briefly: Competitive inhibition of PAF-induced platelet aggregation was measured as IC50 ratio = [1000 x the IC50 of the test compound divided by the IC50 of a standard (3)]. It is filed as functional.

For the compound `CCCCCCOc1c(OC)cc(C(=O)OCCCC[n+]2ccccc2)cc1OC.[I-]`, the IC50 ratio in experiment [1] was determined as 107. In addition, in the experiment filed under Oryctolagus cuniculus [2], the IC50 entry was “Not Active”.

Regarding `CCCCCCOc1c(OC)cc(C(=O)OCc2ccccc2C[N+](C)(C)C)cc1OC`, in experiment [1], the IC50 ratio came to 144.

With `COc1cc(C(=O)OCCCC[N+](C)(C)C)cc(OC)c1OCc1ccccc1.[I-]`, the IC50 ratio in experiment [1] turned out to be 533. Also, in the experiment filed under Oryctolagus cuniculus [2], the IC50 result is recorded as “Not Active”.

Consider `CCCCCCOc1c(OC)cc(C(=O)OCCCC[N+](C)(C)C)cc1OC.[I-]`, for which, in experiment [1], the IC50 ratio came to 164. For the same compound, the IC50 result in the experiment listed under Oryctolagus cuniculus [2] is listed as “Not Active”.

Turning to `CCCCCCOc1c(OC)cc(C(=O)OCCCC[N+](CC)(CC)CC)cc1OC.[I-]`, in experiment [1], the IC50 ratio was determined as 115. The IC50 entry in the experiment listed under Oryctolagus cuniculus [2] is “Not Active”.

For `CCCCCCOc1c(OC)cc(/C=C/CCCC[N+](C)(C)C)cc1OC.[I-]`, the IC50 ratio in experiment [1] came to 133. The IC50 entry in the experiment filed under Oryctolagus cuniculus [2] was “Not Active”.

Consider `CCCCCCOc1c(OC)cc(CCCCc2scnc2C)cc1OC`, for which the IC50 ratio in experiment [1] is 14.7.

Turning to `CCCCCCOc1c(OC)cc(C(=O)Oc2cccc3ccc[n+](C)c23)cc1OC.[I-]`, the IC50 ratio in experiment [1] came to 11.7. In addition, in the experiment filed under Oryctolagus cuniculus [2], the IC50 entry is listed as “Not Active”.

Consider `CCCCCCOc1ccc(C(=O)OCCCC[N+](C)(C)C)cc1`, for which, in experiment [1], the IC50 ratio stood at 1400.

`CCCCCCOc1c(OC)cc(C(=O)OCCCC[n+]2cccc3ccccc32)cc1OC.[Cl-]`: the IC50 ratio in experiment [1] came to 57.3. In the experiment listed under Oryctolagus cuniculus [2], the IC50 entry is listed as “Not Active”.

As to `CCCCCCCOc1c(OC)cc(C(=O)OCCCC[N+](C)(C)C)cc1OC.[I-]`, the IC50 ratio in experiment [1] was determined as 199. For the same compound, the IC50 result in the experiment listed under Oryctolagus cuniculus [2] was “Not Active”.

For `CCCCCCOc1c(C)cc(C(=O)OCCCC[N+](C)(C)C)cc1C`, the IC50 ratio in experiment [1] is 265.

Regarding `CCCCOc1c(OC)cc(C(=O)OCC[N+](C)(C)C)cc1OC.[I-]`, the IC50 ratio in experiment [1] stood at 3370. Also, the IC50 entry in the experiment filed under Oryctolagus cuniculus [2] was “Not Active”.

Regarding `COc1cc(C(=O)OCCCC[N+](C)(C)C)cc(OC)c1OCCC1CCCC1`, the IC50 ratio in experiment [1] is 203.

Consider `CCCCCCOc1c(OC)cc(C(=O)OCCc2scnc2C)cc1OC`, for which the IC50 ratio in experiment [1] came to 116.

`CCCCCCOc1c(OC)cc(C(=O)OCC[N+](C)(C)C)cc1OC.[I-]`: the IC50 ratio in experiment [1] worked out at 1000. For the same compound, the IC50 entry in the experiment filed under Oryctolagus cuniculus [2] was “Not Active”.

As to `CCCCCCCCOc1c(OC)cc(C(=O)OCCCC[N+](C)(C)C)cc1OC`, the IC50 ratio in experiment [1] amounted to 103.

Turning to `COc1cc(C(=O)OCCCC[N+](C)(C)C)cc(OC)c1OCC1CCCCC1.[I-]`, the IC50 result in the experiment filed under Oryctolagus cuniculus [3] is reported as “Not Active”. The IC50 ratio in experiment [1] turned out to be 443.

In the case of `CCCCCCOc1c(OC)cc(CCCCCC[N+](C)(C)C)cc1OC`, the IC50 ratio in experiment [1] is 65.

In the case of `CCCCCCOc1c(OC)cc(CC(=O)OCCC[N+](C)(C)C)cc1OC`, in experiment [1], the IC50 ratio stood at 820.

As for `CCCCCCOc1c(OC)cc(C(=O)OCCCCCC[N+](C)(C)C)cc1OC`, in experiment [1], the IC50 ratio was 270.

On to `CCCCCCOc1c(OC)cc(C(=O)OCCCC[n+]2ccsc2)cc1OC`, for which the IC50 ratio in experiment [1] was found to be 48.

Regarding `CCCCCCOc1c(OC)cc(C=CCCCC[N+](C)(C)C)cc1OC.[I-]`, the IC50 ratio in experiment [1] turned out to be 200. In the experiment listed under Oryctolagus cuniculus [2], the IC50 result is given as “Not Active”.

In the case of `COc1cc(C(=O)OCC[N+](C)(C)C)cc(OC)c1OC.[I-]`, the IC50 ratio in the experiment listed under Oryctolagus cuniculus [4] is 15000.

For `CCCCCCOc1c(OC)cc(C(=O)OCCC[N+](C)(C)C)cc1OC.[I-]`, in experiment [1], the IC50 ratio stood at 7000. Moreover, the IC50 result in the experiment listed under Oryctolagus cuniculus [2] was “Not Active”.

As for `CCCCCCOc1c(OC)cc(C(=O)Oc2ccccc2CC[N+](C)(C)C)cc1OC`, the IC50 ratio in experiment [1] amounted to 507.

`CCCCCCOc1c(OC)cc(OC(=O)CCCC[N+](C)(C)C)cc1OC.[I-]`: the IC50 ratio in experiment [1] is 833. The IC50 result in the experiment listed under Oryctolagus cuniculus [2] is given as “Not Active”.

Regarding `CCCCCOc1c(OC)cc(C(=O)OCCCC[N+](C)(C)C)cc1OC.[I-]`, in experiment [1], the IC50 ratio is 540. Further, in the experiment filed under Oryctolagus cuniculus [2], the IC50 entry was “Not Active”.

Regarding `CCCCCCCCCCCCCCCCOc1c(OC)cc(C(=O)OCCCC[N+](C)(C)C)cc1OC`, the IC50 ratio in experiment [1] came out at 35.

On to `CCCCCCOc1c(OC)cc(C(=O)OCCc2sc[n+](C)c2C)cc1OC.[I-]`, for which, in experiment [1], the IC50 ratio worked out at 114. In addition, the IC50 entry in the experiment listed under Oryctolagus cuniculus [2] is “Not Active”.

As to `CCCCCCOc1ccc(C(=O)OCCCC[N+](C)(C)C)cc1OC.[I-]`, the IC50 ratio in experiment [1] came out at 1740. In addition, the IC50 result in the experiment filed under Oryctolagus cuniculus [2] is on record as “Not Active”.

`CCCCCCOc1c(OC)cc(C(=O)OCCCCN(C)C)cc1OC`: the IC50 ratio in experiment [1] came to 1500. Also, the IC50 result in the experiment filed under Oryctolagus cuniculus [2] is recorded as “Not Active”.

As for `CCCCCCOc1c(OC)cc(C(=O)Oc2ccc3c(ccc[n+]3C)c2)cc1OC`, in experiment [1], the IC50 ratio was 13.

With `CCCCCCOc1c(Cl)cc(C(=O)OCCCC[N+](C)(C)C)cc1OC`, the IC50 ratio in experiment [1] turned out to be 263.

Take `CCCCCCCCCCOc1c(OC)cc(C(=O)OCC[N+](C)(C)C)cc1OC`: in experiment [1], the IC50 ratio was determined as 153.
